Laboratory results from patent US11685714B2, “Prodrugs of cytotoxic active agents having enzymatically cleavable groups” (BAYER PHARMA AKTIENGESELLSCHAFT, priority 2016, dated 2023).
Counter-ions that a name gives are not always drawn.

Tests used:
Type in all cases: cell-based
[1] = tested on: KPL4: human breast cancer cell line; assay: MTT assay on KPL4; settings: 96 h incubation
Description: (§1) The analysis of the cytotoxic effects of the ADCs was carried out with various cell lines:
(§2) The cells were cultivated by the standard method as stated by the American Tissue Culture Collection (ATCC) or the Leibniz-lnstitut DSMZ-Deutsche Sammlung von Mikroorganismen und Zellkulturen GmbH (DSMZ) for the cell lines in question.
(§3) The cells were then incubated in an incubator at 37° C. and 5% carbon dioxide. […] To this end, the MTT reagent was incubated with the cells for 4 h, followed by lysis of the cells overnight by addition of the detergent. […] The measured data were used to calculate the ICo50 of the growth inhibition using the DRC (dose response curve). The proliferation of cells which were not treated with test substance but were otherwise identically treated was defined as the 100% figure.

[2] = tested on: NCI-H292: human mucoepidermoid lung carcinoma cells; assay: MTT assay on NCI-H292; settings: 96 h incubation
Description: as §1, §2, §3

[3] = tested on: SK-HEP-1: human liver cell cancer line; assay: MTT assay on SK-HEP-1; settings: SK-HEP1, 96 h, growth inhibition, 96 h incubation
Description: as §1, §2, §3

[4] = NCI-H292, 96 h, growth inhibition

IC50 ([1]; KPL4, growth inhibition)	IC50 ([2]; NCI-H292, growth inhibition)	SMILES	IC50 ([1]; KPL4, 96 h, growth inhibition)	IC50 [2, 4]	IC50 [3]
		CC(C)(C)[C@H](c1cc(-c2cc(F)ccc2F)cn1Cc1ccccc1)N(CC[C@H](N)C(=O)NCCNC(=O)CNC(=O)CC(SC[C@H](N)C(=O)O)C(=O)O)C(=O)CO (single isomer, unassigned) [Example M13]	169 nM	152 nM	68.1 nM
		CC(C)(C)[C@H](c1cc(-c2cc(F)ccc2F)cn1Cc1ccccc1)N(CC[C@H](N)C(=O)NCCNC(=O)CNC(=O)CC(SC[C@H](N)C(=O)O)C(=O)O)C(=O)CO (single isomer, unassigned) [Example M14]	177 nM	174 nM	94.3 nM
		CC(C)(C)[C@H](c1cc(-c2cc(F)ccc2F)cn1Cc1ccccc1)N(CC[C@H](N)C(=O)NCCNC(=O)CNC(=O)C(CC(=O)O)SC[C@H](N)C(=O)O)C(=O)CO (single isomer, unassigned) [Example M15]	169 nM	133 nM	49.8 nM
		CC(C)(C)[C@H](c1cc(-c2cc(F)ccc2F)cn1Cc1ccccc1)N(CC[C@H](N)C(=O)NCCNC(=O)CN1C(=O)CC(SC[C@H](N)C(=O)O)C1=O)C(=O)CO (stereo partly drawn) [Example M1, S-[1-(2-{[2-({(2S)-2-Amino-4-[{(1R)-1-[1-benzyl-4-(2,5-difluorophenyl)-1H-pyrrol-2-yl]-2,2-dimethylpropyl}(glycoloyl)amino]butanoyl}amino)ethyl]amino}-2-oxoethyl)-2,5-dioxopyrrolidin-3-yl]-L-cysteine/trifluoroacetic acid (1:1)]	500 nM	500 nM	
		CC(C)(C)[C@H](c1cc(-c2cc(F)ccc2F)cn1Cc1ccccc1)N(CC[C@H](N)C(=O)NCCOCCN1C(=O)CC(SC[C@H](N)C(=O)O)C1=O)C(=O)CO (stereo partly drawn) [Example M4, S-(1-{2-[2-({(2S)-2-Amino-4-[{(1R)-1-[1-benzyl-4-(2,5-difluorophenyl)-1H-pyrrol-2-yl]-2,2-dimethylpropyl}(glycoloyl)amino]butanoyl}amino)ethoxy]ethyl}-2,5-dioxopyrrolidin-3-yl)-L-cysteine/trifluoroacetic acid (1:1)]	176 nM	44.3 nM	34.5 nM
		CC(C)(C)[C@H](c1cc(-c2cc(F)ccc2F)cn1Cc1ccccc1)N(CC[C@H](N)C(=O)NCCNC(=O)CSC[C@H](N)C(=O)O)C(=O)CO [Example M7, S-(2-{[2-({(2S)-2-Amino-4-[{(1R)-1-[1-benzyl-4-(2,5-difluorophenyl)-1H-pyrrol-2-yl]-2,2-dimethylpropyl}(glycoloyl)amino]butanoyl}amino)ethyl]amino}-2-oxoethyl)-L-cysteine/trifluoroacetic acid (1:1)]	92.3 nM	21.2 nM	
		CC(C)(C)[C@H](c1cc(-c2cc(F)ccc2F)cn1Cc1ccccc1)N(CC[C@H](N)C(=O)NCCNC(=O)CNC(=O)CC1SC[C@@H](C(=O)O)NC1=O)C(=O)CO (stereo partly drawn) [Example M08, (3R)-6-{(11 S,15R)-11-Amino-15-[1-benzyl-4-(2,5-difluorophenyl)-1H-pyrrol-2-yl]-14-glycoloyl-16,16-dimethyl-2,5,10-trioxo-3,6,9,14-tetraazaheptadec-1-yl}-5-oxothiomorpholine-3-carboxylic acid/trifluoroacetic acid (1:1)]	487 nM		
0.514 nM	0.27 nM	CC(C)(C)[C@H](c1cc(-c2cc(F)ccc2F)cn1Cc1ccccc1)N(CCCN)C(=O)CO [Example M9, N-(3-Aminopropyl)-N-{(1R)-1-[1-benzyl-4-(2,5-difluorophenyl)-1H-pyrrol-2-yl]-2,2-dimethylpropyl}-2-hydroxyacetamide]			
		CC(C)(C)[C@H](c1cc(-c2cc(F)ccc2F)cn1Cc1ccccc1)N(CCCN)C(=O)CSC[C@H](N)C(=O)O [Example M11, S-{2-[(3-Aminopropyl){(1R)-1-[1-benzyl-4-(2,5-difluorophenyl)-1H-pyrrol-2-yl]-2,2-dimethylpropyl}amino]-2-oxoethyl}-L-cysteine/trifluoroacetic acid (1:2)]		0.0432 nM	0.189 nM
		CC(C)(C)[C@H](c1cc(-c2cc(F)ccc2F)cn1Cc1ccccc1)N(CCCN)C(=O)CSC[C@H](NC(=O)CCC(=O)O)C(=O)O [Example M12, 4-{[(1R)-2-({2-[(3-Aminopropyl){(1R)-1-[1-benzyl-4-(2,5-difluorophenyl)-1H-pyrrol-2-yl]-2,2-dimethylpropyl}amino]-2-oxoethyl}sulphanyl)-1-carboxyethyl]amino}-4-oxobutanoic acid/trifluoroacetic acid (1:1)]		33 nM	21.1 nM
		CC(C)(C)[C@H](c1cc(-c2cc(F)ccc2F)cn1Cc1ccccc1)N(CC[C@H](N)C(=O)O)C(=O)CO [Example M17, (2S)-2-Amino-4-[{(1R)-1-[1-benzyl-4-(2,5-difluorophenyl)-1H-pyrrol-2-yl]-2,2-dimethylpropyl}(glycoloyl)amino]butanoic acid hydrochloride (1:1)]		7.35 nM	
		CC(C)(C)[C@H](c1cc(-c2cc(F)ccc2F)cn1Cc1ccccc1)N(CC[C@H](N)C(=O)NCCNC(=O)CC[C@H](N)C(=O)O)C(=O)CO [Example M18, N-[2-({(2S)-2-Amino-4-[{(1R)-1-[1-benzyl-4-(2,5-difluorophenyl)-1H-pyrrol-2-yl]-2,2-dimethylpropyl}(glycoloyl)amino]butanoyl}amino)ethyl]-L-glutamine/trifluoroacetic acid (1:1)]		35.5 nM	
		CC(C)(C)[C@H](c1cc(-c2cc(F)ccc2F)cn1Cc1ccccc1)N(CC[C@H](N)C(=O)NCCC(=O)NCCCC[C@H](N)C(=O)O)C(=O)CO [Example M19, N^6—(N-{(2S)-2-Amino-4-[{(1R)-1-[1-benzyl-4-(2,5-difluorophenyl)-1H-pyrrol-2-yl]-2,2-dimethylpropyl}(glycoloyl)amino]butanoyl}-beta-alanyl)-L-lysine/trifluoroacetic acid (1:1)]		121 nM	
		CC(C)(C)[C@H](c1cc(-c2cc(F)ccc2F)cn1Cc1ccccc1)N(CCCN)C(=O)CSC[C@H](NC(=O)CCOCCOCCOCCOCCNC(=O)CNC(=O)CC(SC[C@H](N)C(=O)O)C(=O)O)C(=O)O (stereo partly drawn) [Example M20, (1R,4R,27R,33R)-1-Amino-32-(3-aminopropyl)-33-[1-benzyl-4-(2,5-difluorophenyl)-1H-pyrrol-2-yl]-34,34-dimethyl-6,9,25,31-tetraoxo-13,16,19,22-tetraoxa-3,29-dithia-7,10,26,32-tetraazapentatriacontane-1,4,27-tricarboxylic acid/trifluoroacetic acid (1:2)]	213 nM	149 nM	181 nM
		CC(C)(C)[C@H](c1cc(-c2cc(F)ccc2F)cn1Cc1ccccc1)N(CC[C@H](N)C(=O)NCCC(=O)N[C@@H](CCC(=O)O)C(=O)O)C(=O)CO [Example M23, N-{(2S)-2-Amino-4-[{(1R)-1-[1-benzyl-4-(2,5-difluorophenyl)-1H-pyrrol-2-yl]-2,2-dimethylpropyl}(glycoloyl)amino]butanoyl}-beta-alanyl-L-glutamic acid/trifluoroacetic acid (1:1)]	500 nM	500 nM	500 nM
		CC(C)(C)[C@H](c1cc(-c2cc(F)ccc2F)cn1Cc1ccccc1)N(CC[C@H](N)C(=O)NCCC(=O)N[C@H](CCC(=O)O)C(=O)O)C(=O)CO [Example M24, N-{(2S)-2-Amino-4-[{(1R)-1-[1-benzyl-4-(2,5-difluorophenyl)-1H-pyrrol-2-yl]-2,2-dimethylpropyl}(glycoloyl)amino]butanoyl}-beta-alanyl-D-glutamic acid/trifluoroacetic acid (1:1)]	500 nM	167 nM	57.3 nM
		CC(C)(C)[C@H](c1cc(-c2cc(F)ccc2F)cn1Cc1ccccc1)N(CC[C@H](N)C(=O)NCCNC(=O)CNC(=O)C(CC(=O)O)SC[C@H](N)C(=O)O)C(=O)CO (stereo partly drawn) [Example M27, 4-[(2-{[2-({(2S)-2-Amino-4-[{(1R)-1-[1-benzyl-4-(2,5-difluorophenyl)-1H-pyrrol-2-yl]-2,2-dimethylpropyl}(glycoloyl)amino]butanoyl}amino)ethyl]amino}-2-oxoethyl)amino]-3-{[(2R)-2-amino-2-carboxyethyl]sulphanyl}-4-oxobutanoic acid/trifluoroacetic acid (1:1)]		276 nM	89 nM
